Converted amounts (≈) assume the structure as drawn.
Tested on: Staphylococcus aureus
Test: Antibacterial activity against Staphylococcus aureus ATCC 6538P after 18 hrs by broth microdilution method
Assay type: functional

MIC: 32 µg/mL (≈ 48.7 µM)
Structure (SMILES): CO[C@@H]1[C@H](O)[C@@H](C)O[C@@H](OC[C@H]2[C@@H]3O[C@@H]3/C=C/C(=O)[C@H](C)CC[C@H](O[C@@H]3O[C@H](C)C[C@H](O)[C@H]3O)[C@@H](C)/C=C/C(=O)O[C@@H]2C)[C@@H]1OC [NEUTRAMYCIN E]

From ChEMBL document CHEMBL1146587, “Purification, structure determination, and antimicrobial activity of neutramycins B-G” (2003)
